According to ChEMBL document CHEMBL1201862, “PubChem BioAssay data set” (2004):
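Cultured in 96-well plates, cells were exposed to test compound for 48 hours across five concentrations. GI50: concentration for 50% inhibition of growth.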 Active and inactive are the calls of the source. No stated cut-off is given here; in the data, active = GI50 up to about 1.1 µM and inactive = higher.

How the values were obtained:
Experiment in all cases: NCI-60 cell line screen, 48 h
A498 = tested on: A498
NCI-H226 = tested on: NCI-H226
XF498 = tested on: XF498
HOP-92 = tested on: HOP-92
OVCAR-3 = tested on: OVCAR-3
U-251 = tested on: U-251
DLD-1 = tested on: DLD-1
SF-295 = tested on: SF-295
NCI-H522 = tested on: NCI-H522
HOP-62 = tested on: HOP-62
MCF7 = tested on: MCF7
OVCAR-8 = tested on: OVCAR-8
NCI/ADR-RES = tested on: NCI/ADR-RES
SF-539 = tested on: SF-539
K562 = tested on: K562
DMS-273 = tested on: DMS-273
IGROV-1 = tested on: IGROV-1
SNB-19 = tested on: SNB-19
HL-60 = tested on: HL-60
RPMI-8226 = tested on: RPMI-8226
SNB-78 = tested on: SNB-78
SW-620 = tested on: SW-620
CAKI-1 = tested on: CAKI-1
HT-29 = tested on: HT-29
A549 = tested on: A549
CCRF-CEM = tested on: CCRF-CEM
SK-MEL-5 = tested on: SK-MEL-5
SF-268 = tested on: SF-268
MOLT-4 = tested on: MOLT-4
SN12C = tested on: SN12C
HCC 2998 = tested on: HCC 2998
LOX IMVI = tested on: LOX IMVI
DMS-114 = tested on: DMS-114
RXF 393 = tested on: RXF 393
NCI-H460 = tested on: NCI-H460
NCI-H23 = tested on: NCI-H23
Malme-3M = tested on: Malme-3M
OVCAR-4 = tested on: OVCAR-4
EKVX = tested on: EKVX
SNB-75 = tested on: SNB-75
SK-MEL-28 = tested on: SK-MEL-28
OVCAR-5 = tested on: OVCAR-5
HCT-15 = tested on: HCT-15
KM12 = tested on: KM12
HCT-116 = tested on: HCT-116
UACC-62 = tested on: UACC-62
UACC-257 = tested on: UACC-257
SK-MEL-2 = tested on: SK-MEL-2
UO-31 = tested on: UO-31
SK-OV-3 = tested on: SK-OV-3
COLO 205 = tested on: COLO 205
KM-20L2 = tested on: KM-20L2
M19-MEL = tested on: M19-MEL
ACHN = tested on: ACHN
786-0 = tested on: 786-0
TK-10 = tested on: TK-10
M14 = tested on: M14
LXFL 529 = tested on: LXFL 529
PC-3 = tested on: PC-3
MDA-N = tested on: MDA-N
DU-145 = tested on: DU-145
MDA-MB-231 = tested on: MDA-MB-231
MDA-MB-435 = tested on: MDA-MB-435
T47D = tested on: T47D
SR = tested on: SR

O=NN(CCCl)C(=O)Nc1ccc(Cl)c(Cl)c1
GI50 (A498): > 83.8 µM (inactive) | GI50 (NCI-H226): 46.6 µM (inactive) | GI50 (XF498): 72.8 µM (inactive) | GI50 (HOP-92): > 77.8 µM (inactive) | GI50 (OVCAR-3): 41.9 µM (inactive) | GI50 (U-251): 52 µM (inactive) | GI50 (DLD-1): 53.5 µM (inactive) | GI50 (SF-295): 48.5 µM (inactive) | GI50 (NCI-H522): 28.3 µM (inactive) | GI50 (HOP-62): 0.546 µM (active) | GI50 (MCF7): 38.5 µM (inactive) | GI50 (OVCAR-8): 71.6 µM (inactive) | GI50 (NCI/ADR-RES): 48.4 µM (inactive) | GI50 (SF-539): > 91.2 µM (inactive) | GI50 (K562): 36.9 µM (inactive) | GI50 (DMS-273): 72.8 µM (inactive) | GI50 (IGROV-1): > 56.5 µM (inactive) | GI50 (SNB-19): > 63 µM (inactive) | GI50 (HL-60): > 100 µM (inactive) | GI50 (RPMI-8226): 50 µM (inactive) | GI50 (SNB-78): > 56.9 µM (inactive) | GI50 (SW-620): > 100 µM (inactive) | GI50 (CAKI-1): 81.1 µM (inactive) | GI50 (HT-29): 76.6 µM (inactive) | GI50 (A549): > 100 µM (inactive) | GI50 (CCRF-CEM): 59.8 µM (inactive) | GI50 (SK-MEL-5): 71.6 µM (inactive) | GI50 (SF-268): 31.6 µM (inactive) | GI50 (MOLT-4): > 100 µM (inactive) | GI50 (SN12C): > 100 µM (inactive) | GI50 (HCC 2998): > 60.7 µM (inactive) | GI50 (LOX IMVI): 78.5 µM (inactive) | GI50 (DMS-114): 6.67 µM (inactive) | GI50 (RXF 393): > 100 µM (inactive) | GI50 (NCI-H460): 56.8 µM (inactive) | GI50 (NCI-H23): > 69.7 µM (inactive) | GI50 (Malme-3M): > 100 µM (inactive) | GI50 (OVCAR-4): 61.1 µM (inactive) | GI50 (EKVX): 46.9 µM (inactive) | GI50 (SNB-75): > 100 µM (inactive) | GI50 (SK-MEL-28): > 100 µM (inactive) | GI50 (OVCAR-5): > 67.9 µM (inactive) | GI50 (HCT-15): > 71.6 µM | GI50 (KM12): > 77.3 µM (inactive) | GI50 (HCT-116): > 100 µM (inactive) | GI50 (UACC-62): 45.9 µM (inactive) | GI50 (UACC-257): > 100 µM (inactive) | GI50 (SK-MEL-2): > 82.2 µM (inactive) | GI50 (UO-31): 45.7 µM (inactive) | GI50 (SK-OV-3): > 94.8 µM (inactive) | GI50 (COLO 205): > 100 µM (inactive) | GI50 (KM-20L2): 25.3 µM (inactive) | GI50 (M19-MEL): 69.5 µM (inactive)

O=C(CC1(O)C(=O)Nc2ccccc21)c1ccco1 (stereo not drawn)
GI50 (A498): > 100 µM (inactive) | GI50 (NCI-H226): > 100 µM (inactive) | GI50 (XF498): > 100 µM (inactive) | GI50 (HOP-92): > 100 µM (inactive) | GI50 (OVCAR-3): > 100 µM (inactive) | GI50 (DLD-1): > 100 µM (inactive) | GI50 (SF-295): > 100 µM (inactive) | GI50 (NCI-H522): > 100 µM (inactive) | GI50 (HOP-62): > 100 µM (inactive) | GI50 (OVCAR-8): > 100 µM (inactive) | GI50 (SF-539): > 100 µM (inactive) | GI50 (K562): > 100 µM (inactive) | GI50 (ACHN): > 100 µM (inactive) | GI50 (DMS-273): > 100 µM (inactive) | GI50 (IGROV-1): > 100 µM (inactive) | GI50 (786-0): > 100 µM (inactive) | GI50 (SNB-19): > 100 µM (inactive) | GI50 (TK-10): > 100 µM (inactive) | GI50 (HL-60): > 100 µM (inactive) | GI50 (RPMI-8226): > 100 µM (inactive) | GI50 (SNB-78): > 100 µM (inactive) | GI50 (SW-620): > 100 µM (inactive) | GI50 (CAKI-1): > 100 µM (inactive) | GI50 (HT-29): > 100 µM (inactive) | GI50 (A549): > 100 µM (inactive) | GI50 (SK-MEL-5): > 100 µM (inactive) | GI50 (SF-268): > 100 µM (inactive) | GI50 (MOLT-4): > 100 µM (inactive) | GI50 (SN12C): > 100 µM (inactive) | GI50 (LOX IMVI): > 100 µM (inactive) | GI50 (DMS-114): > 100 µM (inactive) | GI50 (RXF 393): > 100 µM (inactive) | GI50 (NCI-H460): > 100 µM (inactive) | GI50 (NCI-H23): > 100 µM (inactive) | GI50 (Malme-3M): > 100 µM (inactive) | GI50 (OVCAR-4): > 100 µM (inactive) | GI50 (EKVX): > 100 µM (inactive) | GI50 (SNB-75): 94.8 µM (inactive) | GI50 (SK-MEL-28): > 100 µM (inactive) | GI50 (M14): > 100 µM (inactive) | GI50 (OVCAR-5): > 100 µM (inactive) | GI50 (HCT-15): > 100 µM | GI50 (HCT-116): > 100 µM (inactive) | GI50 (LXFL 529): > 100 µM (inactive) | GI50 (UACC-62): > 100 µM (inactive) | GI50 (UACC-257): > 100 µM (inactive) | GI50 (SK-MEL-2): > 100 µM (inactive) | GI50 (UO-31): > 100 µM (inactive) | GI50 (SK-OV-3): > 100 µM (inactive) | GI50 (COLO 205): > 100 µM (inactive) | GI50 (KM-20L2): > 100 µM (inactive) | GI50 (M19-MEL): > 100 µM (inactive)

CCN(CC)CCCC(C)Nc1ccnc2cc(Cl)ccc12 (stereo not drawn) [CHLOROQUINE PHOSPHATE]
GI50 (A498): 24.3 µM (inactive) | GI50 (XF498): 17.9 µM (inactive) | GI50 (HOP-92): 15.7 µM (inactive) | GI50 (OVCAR-3): 97.1 µM (inactive) | GI50 (U-251): 21.2 µM (inactive) | GI50 (DLD-1): > 100 µM (inactive) | GI50 (SF-295): 21 µM (inactive) | GI50 (NCI-H522): 25.8 µM (inactive) | GI50 (PC-3): 19 µM (inactive) | GI50 (HOP-62): 34.4 µM (inactive) | GI50 (MCF7): 19.1 µM (inactive) | GI50 (MDA-N): 16.6 µM (inactive) | GI50 (OVCAR-8): 33.4 µM (inactive) | GI50 (NCI/ADR-RES): 42.1 µM (inactive) | GI50 (SF-539): 16.6 µM (inactive) | GI50 (K562): 12.4 µM (inactive) | GI50 (ACHN): > 85.1 µM (inactive) | GI50 (DMS-273): 28.1 µM (inactive) | GI50 (IGROV-1): 24.5 µM (inactive) | GI50 (786-0): 11.7 µM (inactive) | GI50 (DU-145): 7.94 µM (inactive) | GI50 (SNB-19): > 76.4 µM (inactive) | GI50 (TK-10): 37.3 µM (inactive) | GI50 (HL-60): 13.3 µM (inactive) | GI50 (RPMI-8226): 19.5 µM (inactive) | GI50 (SNB-78): 29.9 µM (inactive) | GI50 (SW-620): > 57.4 µM (inactive) | GI50 (CAKI-1): 20.8 µM (inactive) | GI50 (HT-29): 17.5 µM (inactive) | GI50 (A549): 39.5 µM (inactive) | GI50 (CCRF-CEM): 20.8 µM (inactive) | GI50 (SK-MEL-5): 26.2 µM (inactive) | GI50 (SF-268): 60.7 µM (inactive) | GI50 (MOLT-4): 15.2 µM (inactive) | GI50 (MDA-MB-231): 15.8 µM (inactive) | GI50 (SN12C): 34.9 µM (inactive) | GI50 (HCC 2998): 19.5 µM (inactive) | GI50 (LOX IMVI): 20.6 µM (inactive) | GI50 (DMS-114): 24.3 µM (inactive) | GI50 (MDA-MB-435): 16.4 µM (inactive) | GI50 (RXF 393): 2.4 µM (inactive) | GI50 (NCI-H460): 18 µM (inactive) | GI50 (NCI-H23): > 84.7 µM (inactive) | GI50 (Malme-3M): 20.9 µM (inactive) | GI50 (OVCAR-4): 51.3 µM (inactive) | GI50 (EKVX): > 57 µM (inactive) | GI50 (SNB-75): > 60.5 µM (inactive) | GI50 (SK-MEL-28): 20.6 µM (inactive) | GI50 (M14): 15 µM (inactive) | GI50 (OVCAR-5): 25.1 µM (inactive) | GI50 (HCT-15): 24.9 µM | GI50 (KM12): 31.8 µM (inactive) | GI50 (HCT-116): 12 µM (inactive) | GI50 (LXFL 529): 57.3 µM (inactive) | GI50 (UACC-62): 28.8 µM (inactive) | GI50 (UACC-257): 23.1 µM (inactive) | GI50 (SK-MEL-2): 10 µM (inactive) | GI50 (UO-31): 14.9 µM (inactive) | GI50 (SK-OV-3): > 76.7 µM (inactive) | GI50 (COLO 205): 9.38 µM (inactive) | GI50 (T47D): 28.1 µM (inactive) | GI50 (KM-20L2): 14.6 µM (inactive) | GI50 (SR): 13.6 µM (inactive)
